Data as given in paper PMC7252619 (PLoS ONE, 2020).
Like-named read-outs stand apart in the source and are kept apart here.

What was measured:
NEK2 = molecular target: T1, NEK2 (Homo sapiens, UniProt P51955); test: Kinase activity test (ReactionBiology), % enzyme activity relative to DMSO; format: biochemical; details: NEK2;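 note: FDA-approved drugs chosen by structure-based repositioning, each screened at 10 or 1 µM for kinase activity, expressed as percent of DMSO controls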
T1 construct: purchased ReactionBiology
T1 sequence (P51955 1-445): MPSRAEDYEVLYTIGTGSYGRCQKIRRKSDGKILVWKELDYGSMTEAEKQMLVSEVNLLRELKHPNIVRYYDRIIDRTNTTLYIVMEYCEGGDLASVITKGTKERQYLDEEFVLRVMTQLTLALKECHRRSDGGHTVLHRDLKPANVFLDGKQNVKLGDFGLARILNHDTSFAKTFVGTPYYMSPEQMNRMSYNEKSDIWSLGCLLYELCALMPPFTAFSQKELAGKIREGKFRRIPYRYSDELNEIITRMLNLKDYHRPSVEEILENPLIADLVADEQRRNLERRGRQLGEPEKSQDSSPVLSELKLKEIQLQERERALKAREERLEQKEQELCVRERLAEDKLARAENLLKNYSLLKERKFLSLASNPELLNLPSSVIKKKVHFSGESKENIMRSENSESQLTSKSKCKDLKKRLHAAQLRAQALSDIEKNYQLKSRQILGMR

DAPK1 = molecular target: T2, DAPK1 (Homo sapiens, UniProt P53355); test: as above; format: biochemical; details: DAPK1
T2 construct: purchased ReactionBiology
T2 sequence (P53355 whole entry): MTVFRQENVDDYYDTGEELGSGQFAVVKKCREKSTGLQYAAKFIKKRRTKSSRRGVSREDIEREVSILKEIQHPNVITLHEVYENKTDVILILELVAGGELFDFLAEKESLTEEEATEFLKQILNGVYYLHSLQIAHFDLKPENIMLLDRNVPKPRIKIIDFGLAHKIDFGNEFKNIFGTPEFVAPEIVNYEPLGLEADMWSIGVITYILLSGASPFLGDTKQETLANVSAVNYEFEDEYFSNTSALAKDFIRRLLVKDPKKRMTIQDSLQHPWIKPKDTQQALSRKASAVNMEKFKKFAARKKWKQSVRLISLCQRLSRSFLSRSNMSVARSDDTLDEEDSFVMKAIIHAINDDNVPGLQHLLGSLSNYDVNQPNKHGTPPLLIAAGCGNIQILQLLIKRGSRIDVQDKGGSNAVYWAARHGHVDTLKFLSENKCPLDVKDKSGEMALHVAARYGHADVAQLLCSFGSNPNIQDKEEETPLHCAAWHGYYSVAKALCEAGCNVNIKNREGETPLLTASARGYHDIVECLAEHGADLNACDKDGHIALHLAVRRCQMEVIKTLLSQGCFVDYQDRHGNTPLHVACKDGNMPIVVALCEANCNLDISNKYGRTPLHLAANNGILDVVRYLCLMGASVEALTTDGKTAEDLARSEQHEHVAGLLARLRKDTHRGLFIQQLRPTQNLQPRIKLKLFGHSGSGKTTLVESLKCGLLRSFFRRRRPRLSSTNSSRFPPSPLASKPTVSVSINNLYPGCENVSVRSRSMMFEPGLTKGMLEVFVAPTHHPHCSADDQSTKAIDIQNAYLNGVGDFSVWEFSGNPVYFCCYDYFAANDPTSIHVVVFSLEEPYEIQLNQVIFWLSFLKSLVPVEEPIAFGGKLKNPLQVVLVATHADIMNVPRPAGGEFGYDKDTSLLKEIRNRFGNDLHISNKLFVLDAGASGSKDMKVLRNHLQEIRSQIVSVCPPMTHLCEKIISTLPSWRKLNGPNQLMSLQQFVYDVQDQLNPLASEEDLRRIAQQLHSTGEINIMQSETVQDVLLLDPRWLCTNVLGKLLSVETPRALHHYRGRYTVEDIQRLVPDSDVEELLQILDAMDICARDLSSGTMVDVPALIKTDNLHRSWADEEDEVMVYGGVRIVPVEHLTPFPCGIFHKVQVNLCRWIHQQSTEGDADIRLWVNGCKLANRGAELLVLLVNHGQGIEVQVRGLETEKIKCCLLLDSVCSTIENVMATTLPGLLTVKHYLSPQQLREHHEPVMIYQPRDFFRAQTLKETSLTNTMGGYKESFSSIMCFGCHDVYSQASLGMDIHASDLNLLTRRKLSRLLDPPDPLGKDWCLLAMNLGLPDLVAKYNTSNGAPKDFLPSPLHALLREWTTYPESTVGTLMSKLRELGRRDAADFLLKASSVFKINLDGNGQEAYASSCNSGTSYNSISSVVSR

CK1d = molecular target: T3, CK1d (Homo sapiens, UniProt P48730); test: as above; format: biochemical; details: CK1d
T3 construct: purchased ReactionBiology
T3 sequence (P48730 whole entry): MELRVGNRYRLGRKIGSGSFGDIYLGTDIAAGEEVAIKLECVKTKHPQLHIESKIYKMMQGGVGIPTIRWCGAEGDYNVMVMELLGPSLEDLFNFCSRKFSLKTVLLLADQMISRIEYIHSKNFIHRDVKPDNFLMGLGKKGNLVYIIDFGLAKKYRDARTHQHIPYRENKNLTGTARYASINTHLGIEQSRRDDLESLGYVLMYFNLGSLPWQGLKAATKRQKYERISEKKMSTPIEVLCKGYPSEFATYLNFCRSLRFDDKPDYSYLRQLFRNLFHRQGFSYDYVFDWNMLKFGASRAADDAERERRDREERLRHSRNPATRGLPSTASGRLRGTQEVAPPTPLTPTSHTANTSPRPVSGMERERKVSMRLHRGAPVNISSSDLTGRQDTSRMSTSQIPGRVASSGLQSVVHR

EPHB4 = molecular target: T4, EPHB4 (Homo sapiens, UniProt P54760); test: as above; format: biochemical; details: EPHB4;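 note: EPHB4 was one of ten selected kinases in the screening panel, with enzyme activity expressed as a percentage of DMSO controls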
T4 construct: purchased ReactionBiology
T4 sequence (P54760 16-987): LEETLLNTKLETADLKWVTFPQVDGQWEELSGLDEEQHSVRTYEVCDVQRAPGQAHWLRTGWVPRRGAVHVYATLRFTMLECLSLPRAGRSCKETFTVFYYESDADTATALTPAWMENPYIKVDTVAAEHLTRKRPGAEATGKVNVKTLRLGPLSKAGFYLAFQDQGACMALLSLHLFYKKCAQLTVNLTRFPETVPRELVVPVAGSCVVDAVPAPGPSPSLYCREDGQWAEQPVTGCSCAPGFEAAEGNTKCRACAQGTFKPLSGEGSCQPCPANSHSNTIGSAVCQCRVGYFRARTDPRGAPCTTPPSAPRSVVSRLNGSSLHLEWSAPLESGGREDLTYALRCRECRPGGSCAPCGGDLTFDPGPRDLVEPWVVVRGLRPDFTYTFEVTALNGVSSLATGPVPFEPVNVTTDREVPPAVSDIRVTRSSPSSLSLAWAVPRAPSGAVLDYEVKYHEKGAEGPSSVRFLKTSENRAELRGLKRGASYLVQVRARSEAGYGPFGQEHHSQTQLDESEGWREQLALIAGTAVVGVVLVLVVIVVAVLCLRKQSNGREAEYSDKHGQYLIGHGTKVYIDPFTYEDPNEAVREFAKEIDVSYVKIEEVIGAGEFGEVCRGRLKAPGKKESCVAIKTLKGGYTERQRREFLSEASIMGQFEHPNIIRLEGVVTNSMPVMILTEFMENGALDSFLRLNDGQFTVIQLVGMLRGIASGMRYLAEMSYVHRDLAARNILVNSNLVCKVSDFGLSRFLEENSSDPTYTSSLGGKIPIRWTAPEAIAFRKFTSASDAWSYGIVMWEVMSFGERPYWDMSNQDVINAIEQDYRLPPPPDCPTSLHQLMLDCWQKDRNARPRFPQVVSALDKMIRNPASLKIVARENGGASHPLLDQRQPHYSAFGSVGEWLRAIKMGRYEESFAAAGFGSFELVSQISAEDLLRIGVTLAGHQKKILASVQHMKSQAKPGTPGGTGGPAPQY

human CD19+ B cells = test: B-cell assay: IgG production of ODN2006-stimulated primary B cells (AlphaLISA); format: cell-based; details: Homo sapiens, B-cell, 168 h; IgG production, ODN2006 0.1 μM, 7 days; mean of 4 independent experiments; read-out: B-cell IC50
Experimental: (§1) Compounds were prepared as 10 mM stock solutions in dimethylsulfoxide (DMSO)and were tested at 50-10-1-0.1-0.01 and 0.001 μM in the 4 assays.
Blood samples of healthy volunteers were collected at the Red Cross of Mechelen, Belgium.
Highly purified naive peripheral human B cells were separated from fresh human PBMCs on magnetic columns by positive selection using CD19 magnetic beads according to the manufacturer’s instructions (MACS Miltenyi Biotech, Leiden, The Netherlands). […] Freshly isolated human CD19+ B cells were then plated at 25 000 cells per well in a 384-well plate (Perkin Elmer, Zaventem, Belgium) in 55 μL in DMEM medium containing 10% FCS and 5 μg/mL gentamicin sulphate. After 7 days of stimulation with 0.1 μM ODN2006 (InvivoGen, Toulouse, France), supernatant was taken for analysis of IgG using the AlphaLISA human IgG kit according to the manufacturer’s instructions (Perkin Elmer, Zaventem, Belgium).

[1] = system: human PBMCs (responder cells) with RPMI1788 stimulator cells; test: Mixed Lymphocyte Reaction (MLR, T cell assay), 3H-thymidine incorporation; format: cell-based; details: for IC50: Homo sapiens, RPMI-1788, mean of 4 independent measures, read-out: T-cell efficacy, MLR IC 50 (µM) Mean
Experimental: In order to test the efficacy and selectivity of the hit compounds on B-cells, 4 assays were performed: B-cell assay, Mixed Lymphocyte Reaction (MLR), WST-1 assay on RPMI1788 cells (B-cell line) and cytotoxicity WST-1 assay on Jurkat cells (T-cell line). Compounds were prepared as 10 mM stock solutions in dimethylsulfoxide (DMSO)and were tested at 50-10-1-0.1-0.01 and 0.001 μM in the 4 assays.
Blood samples of healthy volunteers were collected at the Red Cross of Mechelen, Belgium. Each donor consents to the use of their blood for research purposes. […] The human B cell line RPMI1788 (American Type Culture Collection, USA) and the human T cell line Jurkat (European Collection of Cell Cultures, ECACC, England) were maintained in RPMI1640 culture medium (BioWhittaker®, Lonza, Verviers, Belgium) containing 10% foetal calf serum (FCS, HyClone® Thermo Scientific, United Kingdom) and 5 μg/mL gentamicin sulphate (BioWhittaker®, Lonza, Verviers, Belgium) at 37°C and 5% CO2.
MLR assay (T cell assay): Freshly isolated human PBMCs (responder cells) were resuspended in RPMI1640 medium containing 10% FCS and 5nμg/mL gentamicin sulphate. RPMI1788 cells (stimulator cells) were inactivated by treatment with mitomycin C (Kyowa®, Takeda Belgium, Brussels, Belgium) for 20 min at 37°C, washed and finally suspended in culture medium. An amount of 100 μL of each cell suspension was mixed with 20 μL of diluted compound. The mixed cells were cultured at 37°C for 6 days in 5% CO2. DNA synthesis was assayed by the addition of 10 μCi (methyl-3H) thymidine (Perkin Elmer, Zaventem, Belgium) per well during the last 18 h in culture. Thereafter, the cells were harvested on glass filter paper and the counts per minute determined in a liquid scintillation counter (TopCount, Perkin Elmer, Zaventem, Belgium).

[2] = WST-1 cytotoxicity assay on RPMI1788 cells (B-cell line); format: cell-based, human; details: human, RPMI1788 cells (B-cell line), mean of 4 independent measures, read-out: Cytotoxicity, WST-1 RPMI 1788 IC 50 (µM) Mean
[3] = WST-1 cytotoxicity assay on Jurkat cells (T-cell line); format: cell-based, human; details: human, Jurkat cells (T-cell line), mean of 4 independent measures, read-out: Cytotoxicity, WST-1 Jurkat IC 50 (µM) Mean
Experimental: as §1
The human B cell line RPMI1788 (American Type Culture Collection, USA) and the human T cell line Jurkat (European Collection of Cell Cultures, ECACC, England) were maintained in RPMI1640 culture medium (BioWhittaker®, Lonza, Verviers, Belgium) containing 10% foetal calf serum (FCS, HyClone® Thermo Scientific, United Kingdom) and 5 μg/mL gentamicin sulphate (BioWhittaker®, Lonza, Verviers, Belgium) at 37°C and 5% CO2.
WST-1 assays on RPMI-1788 cells and Jurkat cells were performed as follows: 20 μL of test compound dilution were added to each well containing exponential growing cells and the plates were incubated for 48 h at 37°C, 5% CO2. Untreated cells and positive control (1% triton X-100, for the last 15 min) served as reference for maximum and minimum viability. At the end of incubation 100 μL of supernatant were removed and replaced by 10 μL of WST-1 solution (Cell Proliferation Reagent WST-1, Roche Applied Science).

VEGFR2 = VEGFR2 (Homo sapiens, UniProt P35968); test: Kinase activity test (ReactionBiology), % enzyme activity relative to DMSO; format: biochemical; design: purchased ReactionBiology; details: VEGFR2;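 note: VEGFR2 was one member of a ten-kinase screening panel testing marketed FDA-approved drugs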
Chain of VEGFR2 (P35968 20-1356): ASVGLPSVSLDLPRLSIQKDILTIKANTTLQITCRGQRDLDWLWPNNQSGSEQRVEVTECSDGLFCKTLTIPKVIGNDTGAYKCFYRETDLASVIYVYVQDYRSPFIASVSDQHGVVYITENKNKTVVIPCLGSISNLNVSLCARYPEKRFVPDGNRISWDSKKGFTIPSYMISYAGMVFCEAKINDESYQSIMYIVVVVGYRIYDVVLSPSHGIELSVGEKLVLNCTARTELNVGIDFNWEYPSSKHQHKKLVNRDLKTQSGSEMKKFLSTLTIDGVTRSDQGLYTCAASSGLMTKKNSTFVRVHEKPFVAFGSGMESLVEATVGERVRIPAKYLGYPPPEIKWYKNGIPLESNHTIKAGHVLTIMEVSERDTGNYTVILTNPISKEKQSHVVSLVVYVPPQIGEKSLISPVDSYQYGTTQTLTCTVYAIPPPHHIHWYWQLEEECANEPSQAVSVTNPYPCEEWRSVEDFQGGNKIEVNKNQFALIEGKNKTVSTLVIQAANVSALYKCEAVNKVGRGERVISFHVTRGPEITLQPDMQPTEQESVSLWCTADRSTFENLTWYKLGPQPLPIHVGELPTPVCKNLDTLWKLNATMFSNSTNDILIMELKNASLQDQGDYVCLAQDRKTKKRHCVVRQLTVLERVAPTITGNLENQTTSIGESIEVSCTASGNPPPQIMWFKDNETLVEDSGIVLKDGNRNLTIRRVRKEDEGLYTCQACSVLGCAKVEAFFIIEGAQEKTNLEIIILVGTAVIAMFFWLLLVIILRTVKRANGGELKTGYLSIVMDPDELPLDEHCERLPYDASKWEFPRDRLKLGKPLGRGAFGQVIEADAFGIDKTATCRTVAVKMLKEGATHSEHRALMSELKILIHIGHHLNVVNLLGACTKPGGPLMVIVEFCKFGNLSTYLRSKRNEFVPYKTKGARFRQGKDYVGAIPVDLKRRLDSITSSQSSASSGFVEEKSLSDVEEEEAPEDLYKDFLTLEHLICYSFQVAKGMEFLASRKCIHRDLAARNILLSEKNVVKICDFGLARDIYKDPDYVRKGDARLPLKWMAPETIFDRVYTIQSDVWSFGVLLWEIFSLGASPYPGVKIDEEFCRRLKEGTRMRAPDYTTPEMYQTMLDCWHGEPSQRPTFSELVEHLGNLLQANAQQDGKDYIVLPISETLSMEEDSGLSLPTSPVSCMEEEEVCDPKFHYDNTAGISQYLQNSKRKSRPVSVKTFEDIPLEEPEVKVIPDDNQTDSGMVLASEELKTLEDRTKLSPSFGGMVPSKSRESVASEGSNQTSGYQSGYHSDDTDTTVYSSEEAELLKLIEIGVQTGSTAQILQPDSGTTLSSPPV

[4] = Average, read-out: % Enzyme Activity (relative to DMSO controls), Average
[5] = replicate Data 1, read-out: % Enzyme Activity (relative to DMSO controls), Data 1
[6] = replicate Data 2, read-out: % Enzyme Activity (relative to DMSO controls), Data 2
[7] = 1 uM, Average, read-out: % Enzyme Activity (relative to DMSO controls), Average
[8] = 1 uM, replicate Data 1, read-out: % Enzyme Activity (relative to DMSO controls), Data 1
[9] = 1 uM, replicate Data 2, read-out: % Enzyme Activity (relative to DMSO controls), Data 2
[10] = 10 uM, Average, read-out: % Enzyme Activity (relative to DMSO controls), Average
[11] = 10 uM, replicate Data 1, read-out: % Enzyme Activity (relative to DMSO controls), Data 1
[12] = 10 uM, replicate Data 2, read-out: % Enzyme Activity (relative to DMSO controls), Data 2
[13] = compound 1μM, relative to DMSO controls, read-out: % Enzyme activity at 1μM
[14] = compound 10μM, relative to DMSO controls, read-out: % Enzyme activity at 10μM

Row | Structure (SMILES) | remaining activity at 1 µM (NEK2; [4]) [%] | remaining activity at 1 µM (NEK2; [5]) [%] | remaining activity at 1 µM (NEK2; [6]) [%] | remaining activity at 10 µM (NEK2; [4]) [%] | remaining activity at 10 µM (NEK2; [5]) [%] | remaining activity at 10 µM (NEK2; [6]) [%] | remaining activity at 1 µM (DAPK1; [7]) [%] | remaining activity at 1 µM (DAPK1; [8]) [%] | remaining activity at 1 µM (DAPK1; [9]) [%] | remaining activity at 10 µM (DAPK1; [10]) [%] | remaining activity at 10 µM (DAPK1; [11]) [%] | remaining activity at 10 µM (DAPK1; [12]) [%] | remaining activity at 1 µM (CK1d; [4]) [%] | remaining activity at 1 µM (CK1d; [5]) [%] | remaining activity at 1 µM (CK1d; [6]) [%] | remaining activity at 10 µM (CK1d; [4]) [%] | remaining activity at 10 µM (CK1d; [5]) [%] | remaining activity at 10 µM (CK1d; [6]) [%] | remaining activity at 1 µM (EPHB4; [7]) [%] | remaining activity at 1 µM (EPHB4; [8]) [%] | further results
1 | NC(=O)c1cccnc1 [Niacinamide, reference compound] | 87.3 | 81 | 93.6 | 76.4 | 65 | 87.8 | 111 | 112 | 110 | 100 | 97.7 | 103 | 113 | 107 | 119 | 101 | 97.9 | 105 | 69.3 | 69 | remaining activity at 1 µM (EPHB4; [9]): 69.6%; remaining activity at 10 µM (EPHB4; [10]): 69.7%; remaining activity at 10 µM (EPHB4; [11]): 68.3%; remaining activity at 10 µM (EPHB4; [12]): 71.1%; remaining activity at 1 µM (EPHB4; [13]): 69.3%; remaining activity at 10 µM (EPHB4; [14]): 69.7%; IC50 (human CD19+ B cells): > 50 µM; IC50 [1]: > 50 µM; IC50 at 48 h [2]: > 50 µM; IC50 at 48 h [3]: > 50 µM; remaining activity at 1 µM (VEGFR2; [4]): 96.4%; remaining activity at 1 µM (VEGFR2; [5]): 97.5%; remaining activity at 1 µM (VEGFR2; [6]): 95.4%; remaining activity at 10 µM (VEGFR2; [4]): 95.7%; remaining activity at 10 µM (VEGFR2; [5]): 90.6%; remaining activity at 10 µM (VEGFR2; [6]): 101%
2 | C[C@]12CC[C@@H]3c4ccc(O)cc4CC[C@H]3[C@@H]1CC[C@@H]2O [Estradiol, reference compound] | 92.1 | 95.7 | 88.5 | 89 | 94.9 | 83 | 111 | 98 | 123 | 69 | 68.3 | 69.7 | 101 | 99.6 | 102 | 96.5 | 98.7 | 94.2 | 100 | 99.8 | remaining activity at 1 µM (DAPK1; [13]): 111%; remaining activity at 10 µM (DAPK1; [14]): 69%; remaining activity at 1 µM (EPHB4; [9]): 100%; remaining activity at 10 µM (EPHB4; [10]): 91.9%; remaining activity at 10 µM (EPHB4; [11]): 91.3%; remaining activity at 10 µM (EPHB4; [12]): 92.5%; IC50 (human CD19+ B cells): 33.9 µM; IC50 [1]: 21.2 µM; Selectivity Index (SI) MLR/B-cell ([1]; ratio of IC50 values): 0.63; IC50 at 48 h [2]: 35.9 µM; IC50 at 48 h [3]: 19.5 µM; remaining activity at 1 µM (VEGFR2; [4]): 115%; remaining activity at 1 µM (VEGFR2; [5]): 115%; remaining activity at 1 µM (VEGFR2; [6]): 115%; remaining activity at 10 µM (VEGFR2; [4]): 105%; remaining activity at 10 µM (VEGFR2; [5]): 106%; remaining activity at 10 µM (VEGFR2; [6]): 103%
